# Measurements reported in the supplement of paper PMC7214452.
# How the values were obtained:
# Test in all cases: normalized area under the dose-response curve (viability relative to DMSO control) (fraction); higher = less sensitive (more viable cells)
# Conditions in all cases: exposure time not given
# [1] = system: FR4 (cancer type: MM)
# Procedure: (§1)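 25 myeloma and 15 non-Hodgkin lymphoma cell lines were exposed to each of 76 drugs as 7-point log dilutions (0.01 nM–10 µM) in duplicate. Viability was read with CellTiter-Glo and normalised to DMSO (0.1%) and staurosporine (10 µM) plate controls. Normalised AUC was calculated by the trapezoidal method relative to the negative control.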
# [2] = system: KMS18 (cancer type: MM)
# Procedure: as §1
# [3] = system: MM1.S (cancer type: MM)
# Procedure: as §1
# [4] = system: KMS12PE (cancer type: MM)
# Procedure: as §1
# [5] = system: OPM2 (cancer type: MM)
# Procedure: as §1
# [6] = system: KMS11 (cancer type: MM)
# Procedure: as §1
# [7] = system: NCI-H929 (cancer type: MM)
# Procedure: as §1
# [8] = system: OCI-MY5/Vec (cancer type: MM)
# Procedure: as §1
# [9] = system: SR-786 (cancer type: TCL)
# Procedure: as §1
# [10] = system: JeKo-1 (cancer type: Mantle)
# Procedure: as §1
# [11] = system: Se-Ax (cancer type: TCL)
# Procedure: as §1
# [12] = system: KMS26 (cancer type: MM)
# Procedure: as §1
# [13] = system: AMO1 (cancer type: MM)
# Procedure: as §1
# [14] = system: My-La (cancer type: TCL)
# Procedure: as §1
# [15] = system: OCI-LY3 (cancer type: DLBCL)
# Procedure: as §1
# [16] = system: KMS34 (cancer type: MM)
# Procedure: as §1
# [17] = system: KMS28BM (cancer type: MM)
# Procedure: as §1
# [18] = system: OCI-MY5/CRBN (cancer type: MM)
# Procedure: as §1
# [19] = system: SKMM2 (cancer type: MM)
# Procedure: as §1
# [20] = system: JJN3 (cancer type: MM)
# Procedure: as §1
# [21] = system: OCI-MY7 (cancer type: MM)
# Procedure: as §1
# [22] = system: Granta-519 (cancer type: Mantle)
# Procedure: as §1
# [23] = system: OCI-MY5 (cancer type: MM)
# Procedure: as §1
# [24] = system: SU-DHL2 (cancer type: DLBCL)
# Procedure: as §1
# [25] = system: L363 (cancer type: MM)
# Procedure: as §1
# [26] = system: HuT 78 (cancer type: TCL)
# Procedure: as §1
# [27] = system: U266 (cancer type: MM)
# Procedure: as §1
# [28] = system: EJM (cancer type: MM)
# Procedure: as §1
# [29] = system: OCI-LY19 (cancer type: DLBCL)
# Procedure: as §1
# [30] = system: XG2 (cancer type: MM)
# Procedure: as §1
# [31] = system: RPMI 8226 (cancer type: MM)
# Procedure: as §1
# [32] = system: JVM2 (cancer type: Mantle)
# Procedure: as §1
# [33] = system: SU-DHL1 (cancer type: TCL)
# Procedure: as §1
# [34] = system: SU-DHL6 (cancer type: DLBCL)
# Procedure: as §1
# [35] = system: OCI-LY1 (cancer type: DLBCL)
# Procedure: as §1
# [36] = system: Mino (cancer type: Mantle)
# Procedure: as §1
# [37] = system: KMS28PE (cancer type: MM)
# Procedure: as §1
# [38] = system: LP1 (cancer type: MM)
# Procedure: as §1
# [39] = system: MM1.R (cancer type: MM)
# Procedure: as §1
# [40] = system: Karpas-299 (cancer type: TCL)
# Procedure: as §1
Compound,normalized area under the dose-response curve [1],normalized area under the dose-response curve [2],normalized area under the dose-response curve [3],normalized area under the dose-response curve [4],normalized area under the dose-response curve [5],normalized area under the dose-response curve [6],normalized area under the dose-response curve [7],normalized area under the dose-response curve [8],normalized area under the dose-response curve [9],normalized area under the dose-response curve [10],normalized area under the dose-response curve [11],normalized area under the dose-response curve [12],normalized area under the dose-response curve [13],normalized area under the dose-response curve [14],normalized area under the dose-response curve [15],normalized area under the dose-response curve [16],normalized area under the dose-response curve [17],normalized area under the dose-response curve [18],normalized area under the dose-response curve [19],normalized area under the dose-response curve [20],normalized area under the dose-response curve [21],normalized area under the dose-response curve [22],normalized area under the dose-response curve [23],normalized area under the dose-response curve [24],normalized area under the dose-response curve [25],normalized area under the dose-response curve [26],normalized area under the dose-response curve [27],normalized area under the dose-response curve [28],normalized area under the dose-response curve [29],normalized area under the dose-response curve [30],normalized area under the dose-response curve [31],normalized area under the dose-response curve [32],normalized area under the dose-response curve [33],normalized area under the dose-response curve [34],normalized area under the dose-response curve [35],normalized area under the dose-response curve [36],normalized area under the dose-response curve [37],normalized area under the dose-response curve [38],normalized area under the dose-response curve [39],normalized area under the dose-response curve [40]
CC(C)C[C@H](NC(=O)[C@H](CCc1ccccc1)NC(=O)CN1CCOCC1)C(=O)N[C@@H](Cc1ccccc1)C(=O)N[C@@H](CC(C)C)C(=O)[C@@]1(C)CO1 [Carfilzomib],0.638,0.0656,0.11,0.18,0.187,0.128,0.12,0.0171,0.25,0.0922,0.113,0.0786,0.0997,0.19,0.0311,0.147,0.0754,0.0124,0.264,0.356,0.11,0.094,0.105,0.0281,0.095,0.32,0.177,0.104,0.0752,0.0918,0.285,0.0748,0.157,0.387,0.0418,0.0636,0.11,0.225,0.07,0.25
Cc1cc(Nc2ncc(Cl)c(Nc3ccccc3S(=O)(=O)C(C)C)n2)c(OC(C)C)cc1C1CCNCC1 [Ceritinib],0.403,0.487,0.32,0.54,0.193,0.344,0.42,0.539,0.657,0.885,0.442,0.677,0.355,0.828,0.813,0.0994,0.276,0.622,0.348,0.281,0.63,0.962,0.261,0.926,0.352,0.534,0.413,0.502,0.85,0.372,0.303,0.899,0.0824,0.877,0.966,0.837,0.161,0.365,0.29,0.61
Nc1nc(Cl)nc2c1ncn2[C@H]1C[C@H](O)[C@@H](CO)O1 [Cladribine],1.01,0.798,0.49,0.84,0.984,0.854,0.52,0.89,0.766,0.185,0.627,0.795,0.672,0.813,0.311,0.734,0.768,0.961,0.763,0.993,0.79,0.523,0.929,0.861,0.826,0.825,0.918,0.555,0.919,0.452,0.939,0.748,0.167,0.843,0.884,0.27,0.533,0.762,0.56,0.89
Nc1nc(Cl)nc2c1ncn2[C@@H]1O[C@H](CO)[C@@H](O)[C@@H]1F [Clofarabine],0.973,0.794,0.36,0.66,0.871,0.578,0.43,0.807,0.851,0.138,0.451,0.592,0.489,0.685,0.119,0.536,0.617,0.927,0.728,0.559,0.74,0.35,0.915,0.662,0.667,0.727,0.595,0.477,0.472,0.346,0.727,0.594,0.236,0.573,0.5,0.274,0.422,0.686,0.45,0.759
O=C(c1ccc(F)c(F)c1Nc1ccc(I)cc1F)N1CC(O)([C@@H]2CCCCN2)C1 [Cobimetinib],0.696,0.588,0.69,0.75,0.629,0.722,0.6,0.843,0.808,0.878,0.538,0.766,0.392,0.857,0.9,0.494,0.731,0.822,0.813,0.742,0.68,0.888,0.587,0.873,0.556,0.807,0.767,0.54,0.923,0.501,0.736,0.724,0.383,0.83,0.996,0.887,0.608,0.634,0.65,0.842
CC1(COc2ccc3c(c2)ncn3-c2ccc3cccc(N4CCC(N)CC4)c3n2)COC1 [Crenolanib],0.59,0.45,0.52,0.53,0.452,0.488,0.45,0.541,0.879,0.746,0.594,0.616,0.325,0.779,0.773,0.423,0.46,0.549,0.663,0.481,0.53,0.91,0.269,0.949,0.459,0.569,0.426,0.436,0.861,0.339,0.464,0.672,0.49,0.894,0.704,0.818,0.407,0.409,0.53,0.855
C[C@@H](Oc1cc(-c2cnn(C3CCNCC3)c2)cnc1N)c1c(Cl)ccc(F)c1Cl [Crizotinib],0.509,0.456,0.4,0.54,0.457,0.423,0.39,0.703,0.406,0.677,0.368,0.577,0.362,0.744,0.765,0.306,0.358,0.75,0.487,0.405,0.73,0.769,0.381,0.833,0.447,0.359,0.335,0.471,0.733,0.338,0.34,0.654,0.0611,0.831,0.817,0.731,0.323,0.465,0.44,0.437
O=P1(N(CCCl)CCCl)NCCCO1 (stereo not given) [Cyclophosphamide],0.918,0.944,0.9,0.91,0.912,0.822,0.93,0.86,0.911,0.915,0.865,0.956,0.884,0.962,0.885,0.791,0.923,0.972,0.949,0.95,0.92,1,0.913,0.929,0.831,0.928,0.862,0.93,0.983,0.878,0.887,0.943,0.937,0.969,0.958,0.907,0.863,0.977,0.88,0.931
